Earlier results as cited in patent US10363219B2, “Method of preparing albumin nanoparticle carrier wrapping taxane drug” (Zhejiang Academy of Forestry, priority 2016, dated 2019).

Details: relative to paclitaxel

CC(=O)O[C@@]12CO[C@@H]1C[C@H](O)[C@@]1(C)C(=O)[C@H](O)C3=C(C)[C@@H](OC(=O)[C@H](O)[C@@H](NC(=O)OC(C)(C)C)c4ccccc4)C[C@@](O)([C@@H](OC(=O)c4ccccc4)[C@H]21)C3(C)C [Docetaxel]
cytotoxic effect, times of that of paclitaxel: 1.3-12 times
